How the values were obtained:
[1] = molecular target: Influenza RNA polymerase (Influenza A/PR8/34 (H1N1) virus lysate) (Influenza A virus, UniProt P03431); assay: Influenza RNA polymerase inhibition (IC50) assay; assay type: biochemical
[2] = test system: Influenza A virus (A/Hong Kong/8/68); assay: Influenza A antiviral assay (H3N2), virus-induced cytopathic effect in MDCK cells; assay type: cell-based; conditions: 120 h, Influenza A/Hong Kong/8/68 (H3N2), MOI 0.03, five day incubation, Cell-titer Glo, read-out: EC50 against the influenza virus
Procedure: MDCK cells were seeded in 96-well plates at a density of 1e5 cells per well in 100 μL of MEM culture medium with 10% FBS. Compounds were 3-fold serially diluted in complete MEM culture medium, with 100 μM as the highest concentration. Each concentration was tested in duplicate. Prior to infection, cells were washed once with 200 μL serum-free MEM. Influenza A virus (A/Hong Kong/8/68, Advanced Biotechnology Inc, Columbia, Md.) was added to cells at MOI 0.03 in 100 ul serum-free MEM containing 27 U/mL trypsin (Worthington, Lakewood, N.J.). After 10 minute incubation at room temperature, 100 μL compound dilutions were added to infected cells for a final volume of 200 μL. After five day incubation at 37° C., virus-induced cytopathic effect was determined by adding Cell-titer Glo viability reagents (Promega, Madison, Wis.) and measuring luminescence on a Victor Luminescence plate reader (Perkin-Elmer, Waltham, Mass.). The cytotoxicity of the compounds in MDCK cells was determined in replicate plates in the same way as in antiviral activity assays, except no virus was added to the cell culture. EC50 and CC50 values were calculated by non-linear regression of multiple data sets using XLFit software (IBDS, Guildford, UK).

Chain of Influenza RNA polymerase (Influenza A/PR8/34 (H1N1) virus lysate) (P03431 whole entry, looked up): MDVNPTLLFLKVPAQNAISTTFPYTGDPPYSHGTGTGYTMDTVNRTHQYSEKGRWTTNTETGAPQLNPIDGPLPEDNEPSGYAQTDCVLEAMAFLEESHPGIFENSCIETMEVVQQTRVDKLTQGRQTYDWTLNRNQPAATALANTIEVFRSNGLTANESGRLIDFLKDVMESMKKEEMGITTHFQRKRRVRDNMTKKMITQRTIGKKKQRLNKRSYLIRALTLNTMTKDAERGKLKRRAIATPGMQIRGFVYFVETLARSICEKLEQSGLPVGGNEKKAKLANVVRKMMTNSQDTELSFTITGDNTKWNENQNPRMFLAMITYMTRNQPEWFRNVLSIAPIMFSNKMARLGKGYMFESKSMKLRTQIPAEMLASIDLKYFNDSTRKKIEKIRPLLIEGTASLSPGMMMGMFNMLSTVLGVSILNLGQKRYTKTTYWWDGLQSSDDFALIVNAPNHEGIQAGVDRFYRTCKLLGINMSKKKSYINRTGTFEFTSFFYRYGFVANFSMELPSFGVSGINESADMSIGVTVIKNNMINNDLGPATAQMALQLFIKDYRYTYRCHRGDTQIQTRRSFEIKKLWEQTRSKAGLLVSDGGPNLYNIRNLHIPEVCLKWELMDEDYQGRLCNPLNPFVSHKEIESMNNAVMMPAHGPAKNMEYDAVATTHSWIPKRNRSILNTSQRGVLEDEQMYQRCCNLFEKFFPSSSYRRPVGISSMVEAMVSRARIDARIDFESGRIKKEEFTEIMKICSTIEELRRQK

| Compound | IC50 [1] [nM] | EC50 [2] [nM] |
| --- | --- | --- |
| Nc1nc(F)nn2c([C@@H]3O[C@H](COP(=O)(O)OP(=O)(O)OP(=O)(O)O)[C@@H](O)[C@H]3F)ccc12 [Compound 21, ((2R,3R,4R,5S)-5-(4-amino-2-fluoropyrrolo[1,2-f][1,2,4]triazin-7-yl)-4-fluoro-3-hydroxytetrahydrofuran-2-yl)methyl tetrahydrogen triphosphate] | 970 to 1870 | – |
| N#C[C@@]1(c2ccc3c(N)ncnn23)O[C@H](COP(=O)(O)OP(=O)(O)OP(=O)(O)O)[C@@H](O)[C@H]1F [Compound 10, ((2R,3R,4R,5R)-5-(4-aminopyrrolo[1,2-f][1,2,4]triazin-7-yl-5-cyano-4-fluoro-3-hydroxytetrahydrofuran-2-yl)methyltetrahydrogen triphosphate] | 48600 to 116000 | – |
| Nc1ncnn2c([C@@H]3O[C@H](CO)[C@@H](O)[C@H]3F)ccc12 [Compound 1, (2R,3R,4R,5S)-5-(4-aminopyrrolo[1,2-f][1,2,4]triazin-7-yl)-4-fluoro-2-(hydroxymethyl)-tetrahydrofuran-3-ol] | – | 10500 to 12700 |
| C[C@@]1(c2ccc3c(N)ncnn23)O[C@H](COP(=O)(O)OP(=O)(O)OP(=O)(O)O)[C@@H](O)[C@H]1F [Compound 9, ((2R,3R,4R,5S)-5-(4-aminopyrrolo[1,2-f][1,2,4]triazin-7-yl)-4-fluoro-3-hydroxy-5-methyltetrahydrofuran-2-yl)methyl tetrahydrogen triphosphate] | 2100 to 2970 | – |
| Nc1ncnn2c([C@@H]3O[C@H](COP(=O)(O)OP(=O)(O)OP(=O)(O)O)[C@@H](O)[C@H]3F)ccc12 [Compound 11, ((2R,3R,4R,5S)-5-(4-aminopyrrolo[1,2-f][1,2,4]triazin-7-yl-4-fluoro-3-hydroxy-tetrahydrofuran-2-yl)methyltetrahydrogen triphosphate] | 950 to 1590 | – |
